In ChEMBL document CHEMBL3046236, “The application of comparative molecular field analysis for the design of -anilino substituted-3-phenyl propanoic acids as novel PPAR/ dual ligands” (Med Chem Res, 2012):

Experiments:
[1] = biological target: T1, Peroxisome proliferator-activated receptor alpha (Homo sapiens, UniProt Q07869); assay: Transactivation of Homo sapiens (human) PPARalpha assessed as luciferase activity by reporter gene assay
T1 sequence (Q07869 whole entry): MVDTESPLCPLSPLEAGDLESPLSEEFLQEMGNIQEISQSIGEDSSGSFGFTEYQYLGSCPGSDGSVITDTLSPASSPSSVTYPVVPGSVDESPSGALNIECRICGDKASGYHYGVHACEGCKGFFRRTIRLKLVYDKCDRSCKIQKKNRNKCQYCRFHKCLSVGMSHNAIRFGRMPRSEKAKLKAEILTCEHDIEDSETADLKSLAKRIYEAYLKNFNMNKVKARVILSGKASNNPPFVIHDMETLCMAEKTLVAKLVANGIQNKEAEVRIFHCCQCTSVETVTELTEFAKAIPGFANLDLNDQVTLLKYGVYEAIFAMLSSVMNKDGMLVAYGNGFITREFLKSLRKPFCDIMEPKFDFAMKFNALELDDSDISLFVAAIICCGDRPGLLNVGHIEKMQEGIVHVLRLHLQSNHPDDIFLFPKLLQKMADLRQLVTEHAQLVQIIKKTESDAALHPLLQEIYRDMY

[2] = biological target: T2, Peroxisome proliferator-activated receptor gamma (Homo sapiens, UniProt P37231)
T2 sequence (P37231 whole entry): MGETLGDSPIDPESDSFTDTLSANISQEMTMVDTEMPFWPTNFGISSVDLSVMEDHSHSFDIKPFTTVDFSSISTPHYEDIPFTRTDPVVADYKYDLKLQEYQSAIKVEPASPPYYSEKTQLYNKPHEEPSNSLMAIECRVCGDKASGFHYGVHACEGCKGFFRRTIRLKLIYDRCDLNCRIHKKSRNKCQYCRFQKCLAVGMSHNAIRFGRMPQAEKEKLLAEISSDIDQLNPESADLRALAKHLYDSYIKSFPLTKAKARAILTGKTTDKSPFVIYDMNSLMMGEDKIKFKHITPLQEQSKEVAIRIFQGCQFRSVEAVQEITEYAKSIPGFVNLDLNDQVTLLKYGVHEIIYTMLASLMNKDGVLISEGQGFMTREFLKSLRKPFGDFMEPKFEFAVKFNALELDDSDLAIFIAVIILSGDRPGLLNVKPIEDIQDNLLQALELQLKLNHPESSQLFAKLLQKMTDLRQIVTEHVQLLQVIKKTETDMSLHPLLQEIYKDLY
Description: Transactivation of Homo sapiens (human) PPARgamma assessed as luciferase activity by reporter gene assay

Structure (SMILES) | EC50 [1] [nM] | EC50 [2] [nM]
CCO[C@@H](Cc1ccc(OC/C=C(\c2ccccc2)c2ccc(Br)cc2)cc1)C(=O)O | 2190 | 4270
Cc1sc(-c2ccncc2)nc1CCOc1ccc(C[C@H](Nc2ccccc2C(=O)c2ccccc2)C(=O)O)cc1 | > 10000 | –
CC(C)O[C@H](Cc1ccc(OCc2noc(-c3cc(C(F)(F)F)cc(C(F)(F)F)c3)n2)cc1)C(=O)O | 2510 | 631
CCO[C@@H](Cc1ccc(OC/C=C(/c2ccccc2)c2ccc(-c3ccccc3)cc2)cc1)C(=O)O | 891 | –
CC(C)O[C@@H](Cc1ccc(OCc2noc(-c3cc(C(F)(F)F)cc(C(F)(F)F)c3)n2)cc1)C(=O)O | 3.98 | 31.6
Cc1oc(C2CCCCC2)nc1CCOc1ccc(C[C@H](Oc2ccccc2)C(=O)O)cc1 | 1 | 1
CCO[C@@H](Cc1ccc(OC/C=C(/c2ccccc2)c2ccc(F)cc2)cc1)C(=O)O | 5250 | 8510
CCO[C@@H](Cc1ccc(OCC=C(c2ccc(C)cc2)c2ccc(C)cc2)cc1)C(=O)O | 692 | –
